In ChEMBL document CHEMBL1156275, “Thioether acetamides as P3 binding elements for tetrahydropyrido-pyrazole cathepsin S inhibitors” (Bioorg Med Chem Lett, 2010):

Legend:
[1] = target: T1, Cathepsin S (Homo sapiens, UniProt P25774); assay: Inhibition of cathepsin S in human JY cells assessed as accumulation of invariant chain p10li after 24 hrs by Western blot analysis; type: cell-based
[2] = target: T1, Cathepsin S; assay: Inhibition of human recombinant cathepsin S expressed in baculovirus expression sytem after 15 mins by FRET assay

T1 sequence (P25774 whole entry): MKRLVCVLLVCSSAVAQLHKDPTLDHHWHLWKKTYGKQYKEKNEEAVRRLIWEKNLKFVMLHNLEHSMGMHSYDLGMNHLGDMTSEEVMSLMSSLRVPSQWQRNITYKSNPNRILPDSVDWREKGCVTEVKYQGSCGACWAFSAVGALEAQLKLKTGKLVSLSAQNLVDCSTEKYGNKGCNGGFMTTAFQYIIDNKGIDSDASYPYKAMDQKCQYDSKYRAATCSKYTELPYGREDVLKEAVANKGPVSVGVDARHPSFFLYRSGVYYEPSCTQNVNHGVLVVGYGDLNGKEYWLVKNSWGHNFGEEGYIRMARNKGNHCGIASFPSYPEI

CS(=O)(=O)N1CCc2c(c(-c3ccc(C(F)(F)F)c(SCCNC(=O)Cc4ccccc4)c3)nn2CC(O)CN2CCC(N3CCCC3=O)CC2)C1 (stereo unspecified)
IC50 [1]: > 10000 nM

CS(=O)(=O)N1CCc2c(c(-c3ccc(C(F)(F)F)c(SCC(=O)N4CC[C@H](O)C4)c3)nn2CC(O)CN2CCC(c3ccccn3)CC2)C1 (stereo partly specified)
IC50 [2]: 7 nM | IC50 [1]: 30 nM

CS(=O)(=O)N1CCc2c(c(-c3ccc(C(F)(F)F)c(SCC(=O)N4CCCCC4)c3)nn2CC(O)CN2CCC(c3ccccn3)CC2)C1 (stereo unspecified)
IC50 [1]: 1540 nM

CS(=O)(=O)N1CCc2c(c(-c3ccc(C(F)(F)F)c(SCC(=O)N4CCCC4)c3)nn2CCCN2CCC(C(=O)N3CCCC3)CC2)C1
IC50 [2]: 40 nM | IC50 [1]: 280 nM

CS(=O)(=O)N1CCc2c(c(-c3ccc(C(F)(F)F)c(SCC(=O)NCc4ccccc4)c3)nn2CCCN2CCC(N3CCCC3=O)CC2)C1
IC50 [1]: 10000 nM

CN1CCN(C(=O)CSc2cc(-c3nn(CCCN4CCC(N5CCCC5=O)CC4)c4c3CN(S(C)(=O)=O)CC4)ccc2C(F)(F)F)CC1
IC50 [2]: 740 nM | IC50 [1]: 110 nM

CS(=O)(=O)N1CCc2c(c(-c3ccc(C(F)(F)F)c(SCC(=O)N4CCCCC4)c3)nn2CCCN2CCC(N3CCCC3=O)CC2)C1
IC50 [2]: 70 nM | IC50 [1]: 3920 nM

CS(=O)(=O)N1CCc2c(c(-c3ccc(C(F)(F)F)c(SCC(=O)N4CCOCC4)c3)nn2CCCN2CCC(N3CCCC3=O)CC2)C1
IC50 [2]: 20 nM | IC50 [1]: 450 nM

CC1CCCN1C(=O)CSc1cc(-c2nn(CCCN3CCC(N4CCCC4=O)CC3)c3c2CN(S(C)(=O)=O)CC3)ccc1C(F)(F)F (stereo unspecified)
IC50 [1]: 6000 nM

CC1CCN(C(=O)CSc2cc(-c3nn(CCCN4CCC(N5CCCC5=O)CC4)c4c3CN(S(C)(=O)=O)CC4)ccc2C(F)(F)F)CC1
IC50 [2]: 210 nM | IC50 [1]: 8000 nM

CS(=O)(=O)N1CCc2c(c(-c3ccc(C(F)(F)F)c(SCC(=O)N4CCC(CO)CC4)c3)nn2CCCN2CCC(N3CCCC3=O)CC2)C1
IC50 [1]: 340 nM

CS(=O)(=O)N1CCc2c(c(-c3ccc(C(F)(F)F)c(SCC(=O)N4CCCC4)c3)nn2CCCN2CCC(N3CCCC3=O)CC2)C1
IC50 [1]: 1970 nM

CS(=O)(=O)N1CCc2c(c(-c3ccc(C(F)(F)F)c(SCCN4CCCCC4)c3)nn2CCCN2CCC(N3CCCC3=O)CC2)C1
IC50 [1]: 40 nM

C[C@H]1CCCCN1CC(O)Cn1nc(-c2ccc(C(F)(F)F)c(SCC(=O)N3CCOCC3)c2)c2c1CCN(S(C)(=O)=O)C2 (mixture of isomers)
IC50 [2]: 300 nM | IC50 [1]: 10000 nM

CS(=O)(=O)N1CCc2c(c(-c3ccc(C(F)(F)F)c(SCC(=O)N4CC[C@@H](O)C4)c3)nn2CC(O)CN2CCC(c3ccccn3)CC2)C1 (mixture of isomers)
IC50 [2]: 7 nM | IC50 [1]: 30 nM

CCN1CCc2c(c(-c3ccc(C(F)(F)F)c(SCC(=O)N4CCCC4)c3)nn2CC(O)CN2CCC(c3ccccn3)CC2)C1 (racemic)
IC50 [2]: 250 nM

O=C(CSc1cc(-c2nn(CC(O)CN3CCC(c4ccccn4)CC3)c3c2CN(C(=O)CO)CC3)ccc1C(F)(F)F)N1CCOCC1 (racemic)
IC50 [1]: 160 nM

O=C(CSc1cc(-c2nn(CC(O)CN3CCC(c4ccccn4)CC3)c3c2CNCC3)ccc1C(F)(F)F)N1CCOCC1 (racemic)
IC50 [1]: 1680 nM

CS(=O)(=O)N1CCc2c(c(-c3ccc(C(F)(F)F)c(SCC(=O)N4CCCC4)c3)nn2CC(O)CN2CCC(c3ccccn3)CC2)C1 (racemic)
IC50 [2]: 1 nM | IC50 [1]: 470 nM

CS(=O)(=O)N1CCc2c(c(-c3ccc(C(F)(F)F)c(SCC(=O)N4CCOCC4)c3)nn2CC(O)CN2CCC(c3ccccc3F)CC2)C1 (racemic)
IC50 [2]: 10 nM | IC50 [1]: 3130 nM

COc1ccccc1C1CCN(CC(O)Cn2nc(-c3ccc(C(F)(F)F)c(SCC(=O)N4CCOCC4)c3)c3c2CCN(S(C)(=O)=O)C3)CC1 (racemic)
IC50 [1]: 190 nM

CS(=O)(=O)N1CCc2c(c(-c3ccc(C(F)(F)F)c(SCC(=O)N4CCOCC4)c3)nn2CC(O)CN2CCC(c3ccccn3)CC2)C1 (racemic)
IC50 [1]: 380 nM

CS(=O)(=O)N1CCc2c(c(-c3ccc(C(F)(F)F)c(SCC(=O)N4CCC(O)C4)c3)nn2CCCN2CCC(N3CCCC3=O)CC2)C1 (racemic)
IC50 [1]: 520 nM

CC(=O)N1CCc2c(c(-c3ccc(C(F)(F)F)c(SCC(=O)N4CCCC4)c3)nn2CC(O)CN2CCC(C(C)(C)O)CC2)C1 (racemic)
IC50 [1]: 110 nM

CC(=O)N1CCc2c(c(-c3ccc(C(F)(F)F)c(SCC(=O)N4CCCC4)c3)nn2CC(O)CN2CCC(C)CC2)C1 (racemic)
IC50 [2]: 180 nM | IC50 [1]: 80 nM

COc1ccccc1C1CCN(CC(O)Cn2nc(-c3ccc(C(F)(F)F)c(SCC(=O)N4CCCC4)c3)c3c2CCNC3)CC1 (racemic)
IC50 [1]: 120 nM

COc1ccccc1C1CCN(CC(O)Cn2nc(-c3ccc(C(F)(F)F)c(SCC(=O)N4CCOCC4)c3)c3c2CCNC3)CC1 (racemic)
IC50 [2]: 190 nM | IC50 [1]: 1850 nM

COc1ccccc1C1CCN(CC(O)Cn2nc(-c3ccc(C(F)(F)F)c(SCC(=O)N4CCOCC4)c3)c3c2CCN(C(C)=O)C3)CC1 (racemic)
IC50 [1]: 900 nM

COc1ccccc1C1CCN(CC(O)Cn2nc(-c3ccc(C(F)(F)F)c(SCC(=O)N4CCOCC4)c3)c3c2CCN(C(=O)CO)C3)CC1 (racemic)
IC50 [1]: 480 nM
